Laboratory results from ChEMBL document CHEMBL6092220 (J Med Chem, 2024).
Activity calls are given as the source filed them. The rule behind the calls is not given here.

Legend:
[1] = Plasma protein binding in dog assessed as unbound fraction at 10 uM; type: ADME, cell-free, Canis lupus familiaris
[2] = target: T1, Protein cereblon/Signal transducer and activator of transcription 1-alpha/beta (Homo sapiens, UniProt P42224+Q96SW2); assay: PROTAC activity at STAT1/CRBN in human MOLM16 cells assessed as reduction in STAT1 level at > 8 uM incubated for 4 hrs by Western blot analysis; type: cell-based
[3] = target: Protein cereblon/Signal transducer and activator of transcription 4 (Homo sapiens, UniProt Q96SW2+Q14765); assay: PROTAC activity at STAT4/CRBN in human PBMC cells assessed as reduction in STAT4 level incubated for 20 hrs by Western blot analysis; type: cell-based
[4] = Toxicity in mouse at 5 to 20 mg/kg, iv; type: organism-based; conditions: in vivo, dose 5-20 mg/kg
[5] = Stability in human Hepatocyte assessed as half life; type: ADME, cell-based; conditions: hepatocytes
[6] = Clearance in Sprague-Dawley rat assessed as hepatic blood flow at 5 mg/kg, iv; type: ADME, organism-based; conditions: in vivo
[7] = target: Protein cereblon/Signal transducer and activator of transcription 3 (Homo sapiens, UniProt P40763+Q96SW2); assay: PROTAC activity at his-SUMO-tagged STAT3 (127 to 688 residues)/CRBN in human SU-DHL-1 cells assessed as reduction in STAT3 level incubated for 20 hrs by Western blot analysis; type: cell-based
[8] = Drug concentration in female CB17 SCID mouse liver at 5 mg/kg, iv measured at 24 hrs by LC-MS/MS analysis; type: ADME, organism-based; conditions: read-out: Ct
[9] = target: T2, Protein cereblon/Signal transducer and activator of transcription 3 (Mus musculus) (UniProt P42227+Q8C7D2); assay: In-vivo PROTAC activity at STAT3/CRBN in female CB17 SCID mouse assessed as STAT3 depletion liver at 5 mg/kg, iv measured upto 72 hrs by immunobloting analysis; type: functional, organism-based
[10] = Apparent volume of distribution in Beagle dog at 1 mg/kg, iv; type: ADME, organism-based, Canis lupus familiaris; conditions: in vivo, read-out: Vz
[11] = target: T1, Protein cereblon/Signal transducer and activator of transcription 1-alpha/beta; assay: PROTAC activity at STAT1/CRBN in human Pfeiffer cells transfected with STAT3 K658R mutant assessed as reduction in STAT1 level upto 40 uM incubated for 20 hrs by Western blot analysis; type: cell-based
[12] = Apparent permeability across basolateral to apical side in human Caco-2 cells; type: ADME, cell-based
[13] = target: Cytochrome P450 2C9 (Homo sapiens, UniProt P11712); assay: Inhibition of CYP2C9 (unknown origin); type: ADME
[14] = Drug concentration in female CB17 SCID mouse liver at 5 mg/kg, iv measured at 48 hrs by LC-MS/MS analysis; type: ADME, organism-based; conditions: read-out: Ct
[15] = Drug concentration in female CB17 SCID mouse spleen at 5 mg/kg, iv measured at 1 hr by LC-MS/MS analysis; type: ADME, organism-based; conditions: read-out: Ct
[16] = target: Signal transducer and activator of transcription 6 (Homo sapiens) (UniProt P42226); assay: Binding affinity to STAT6 (unknown origin) assessed as maximum inhibition by FP assay relative to control
[17] = Stability in rat Hepatocyte assessed as half life; type: ADME, cell-based; conditions: hepatocytes
[18] = Toxicity in iv dosed mouse assessed as weight gain; type: organism-based; conditions: in vivo, dose 5-20 mg/kg
[19] = target: T2, Protein cereblon/Signal transducer and activator of transcription 3 (Mus musculus); assay: In-vivo PROTAC activity at STAT3/CRBN in female CB17 SCID mouse assessed as reduction STAT3 level spleen at 10 mg/kg, iv measured at 24 hrs by Western blot analysis; type: functional, organism-based; parameters: scale not given: the % may be the effect or the level left
[20] = Drug concentration in female CB17 SCID mouse plasma at 5 mg/kg, iv measured at 3 hrs by LC-MS/MS analysis; type: ADME, organism-based
[21] = Stability in Non human primate plasma assessed as half life; type: ADME, cell-free
[22] = Drug concentration in female CB17 SCID mouse spleen at 5 mg/kg, iv measured at 48 hrs by LC-MS/MS analysis; type: ADME, organism-based; conditions: read-out: Ct

COC(=O)N1CC[C@H]2CC[C@@H](C(=O)N[C@@H](CCC(N)=O)C(=O)N[C@@H](Cc3ccc(F)c(F)c3)C(=O)N3CCC(CCC#Cc4cccc5c4CN(C4CCC(=O)NC4=O)C5=O)CC3)N2C(=O)[C@@H](NC(=O)c2cc3cc(C(F)(F)P(=O)(O)O)ccc3s2)C1 (some centres not stated)
Fu [1]: 1.7%
Activity [2]: Active
DC50 [3]: 1.6 µM
Activity [4]: Non-toxic
t1/2 [5]: > 2 h
QH [6]: 2.6%
DC50 [7]: 0.01 µM
concentration at 24 h [8]: 1250 ng/g
Activity [9]: Active
Vd [10]: 0.29 L/kg
Activity [11]: inactive
Papp [12]: 0.13 10^-6 cm/s
IC50 [13]: > 10 µM
concentration at 48 h [14]: 1130 ng/g
concentration at 1 h [15]: 2870 ng/g
Imax [16]: 10%
t1/2 [17]: > 2 h
Activity [18]: Non-toxic
Activity [19]: > 90%
concentration at 3 h [20]: 31200 ng/mL
half-life [21]: > 2 h
concentration at 48 h [22]: 615 ng/g
